Remaining activity data for 30 molecules are collected here from article PMC8286840, “Identifying SARS-CoV-2 antiviral compounds by screening for small molecule inhibitors of Nsp3 papain-like protease” (Biochemical Journal, 2021).

The target of test [1] is T1, SARS-CoV-2 PLpro (nsp3 1564–1878) (Severe acute respiratory syndrome coronavirus 2, UniProt P0DTD1). The test can be described thus: biochemical. Also noted: FRET-quenched peptide (Pro3) cleavage by PLpro, 10 min pre-incubation, slope over 20 min, normalised to no-compound control. The conditions noted are these: high concentration screen, read-out: % of control remaining.
Experimental: The plates were organized with columns 3–22 containing the compounds; the remaining columns were used for reaction controls including substrate only and substrate with enzyme but no compound (Figure 3Aii). The PLpro enzyme was pre-incubated with the compounds for 10 min, and then the reaction was initiated by the addition of substrate. […] We incubated the inhibitors with PLpro before the enzymatic reaction so that the slow-binding inhibitors will not be missed out [21]. […] Fluorescence was read on a Spark multimode microplate reader (Tecan) with an excitation wavelength at 330 nm and emission wavelength at 420 nm. […] An amount of 5 µl of the enzyme was pre-incubated with compounds for 10 min before the addition of 15 µl substrate. Fluorescence was monitored at 2 min for 20 min with 3 min intervals giving a total of seven readings.

Test [2] addresses T1, SARS-CoV-2 PLpro (nsp3 1564–1878). The test can be described thus: biochemical. Also noted: FRET-quenched peptide (Pro3) cleavage by PLpro, 10 min pre-incubation, slope over 20 min, normalised to no-compound control. The conditions noted are these: low concentration screen, read-out: % of control remaining.

Counter-ions that a name gives are not always drawn. Like-named read-outs stand apart in the source and are kept apart here.

As to `CC(=O)c1c(C)c2cnc(Nc3ccc(N4CCNCC4)cn3)nc2n(C2CCCC2)c1=O` [PD 0332991 (Palbociclib) Isethionate], the remaining activity at 3.75 µM in test [1] (Well no.=4882) was 101%. Further, the remaining activity at 1.25 µM in test [2] (Well no.=4882) worked out at 101%.

For `C[C@@H](O)[C@H](N)c1nnc([C@H](CCC(N)=O)NC(=O)N[C@@H](CO)C(=O)O)o1` [PD-1-IN-17], the remaining activity at 3.75 µM in test [1] (Well no.=8741) was 106%. In addition, in test [2] (Well no.=8741), the remaining activity at 1.25 µM is 102%.

Take `COc1ccc(C2(O)OC(=O)C(c3ccc4c(c3)OCO4)=C2Cc2cc(OC)c(OC)c(OC)c2)cc1` (centres unmarked) [PD-156707]: the remaining activity at 3.75 µM in test [1] (Well no.=5693) stood at 104%. Moreover, the remaining activity at 1.25 µM in test [2] (Well no.=5693) worked out at 101%.

As for `CCN(CC)CCCCNc1ncc2cc(-c3c(Cl)cccc3Cl)c(NC(=O)NC(C)(C)C)nc2n1` [PD-161570], in test [1] (Well no.=5413), the remaining activity at 3.75 µM is 97.7%. The remaining activity at 1.25 µM in test [2] (Well no.=5413) was found to be 99.1%.

`COc1cc(OC)cc(-c2cc3cnc(N)nc3nc2NC(=O)NC(C)(C)C)c1` [PD-166866]: the remaining activity at 3.75 µM in test [1] (Well no.=5912) stood at 96.7%. Moreover, in test [2] (Well no.=5912), the remaining activity at 1.25 µM was determined as 96.4%.

With `Cc1cc(Nc2ncc3cc(-c4c(Cl)cccc4Cl)c(=O)n(C)c3n2)ccc1F` [PD-180970], in test [1] (Well no.=5604), the remaining activity at 3.75 µM was found to be 96.4%. Further, in test [2] (Well no.=5604), the remaining activity at 1.25 µM is 100%.

On to `Cc1cc(Cn2c(=O)n(Cc3cnc(C)s3)c(=O)c3cc(S(=O)(=O)NC4(C)CC4)ccc32)n(C)n1` [PDD 00017273], for which the remaining activity at 3.75 µM in test [1] (Well no.=8182) is 98.5%. Besides, the remaining activity at 1.25 µM in test [2] (Well no.=8182) came to 105%.

Turning to `COc1cc2nccc(Oc3ccc(NC(=S)NC(=O)c4ccccc4C)cc3)c2cc1OC` [PDGF RTK Inhibitor], in test [1] (Well no.=2509), the remaining activity at 3.75 µM is 101%. Also, the remaining activity at 1.25 µM in test [2] (Well no.=2509) stood at 104%.

`COc1cc2ncnc(N3CCN(C(=O)Nc4ccc(Oc5ccccc5)cc4)CC3)c2cc1OC` [PDGF Receptor Tyrosine Kinase Inhibitor III]: the remaining activity at 3.75 µM in test [1] (Well no.=2505) stood at 106%. Moreover, in test [2] (Well no.=2505), the remaining activity at 1.25 µM came out at 104%.

As for `CCCC(=O)Oc1ccc2[nH]c(C(=O)c3cc4ccccc4[nH]3)cc2c1` [PDGF Receptor Tyrosine Kinase Inhibitor II], in test [1] (Well no.=2503), the remaining activity at 3.75 µM was found to be 99.2%. The remaining activity at 1.25 µM in test [2] (Well no.=2503) worked out at 101%.

In the case of `CCN(CC)Cc1ccc(C(=O)N(CCc2ccccc2OC)[C@@H]2CCNC2)cc1` [PF429242 (dihydrochloride)], the remaining activity at 3.75 µM in test [1] (Well no.=6996) amounted to 97.5%. Further, the remaining activity at 1.25 µM in test [2] (Well no.=6996) amounted to 102%.

For `CN(c1ccccc1CNc1nc(Nc2ccc3c(c2)CC(=O)N3)ncc1C(F)(F)F)S(C)(=O)=O` [PF431396], the remaining activity at 3.75 µM in test [1] (Well no.=3033) is 100%. In addition, in test [2] (Well no.=3033), the remaining activity at 1.25 µM was 99.3%.

For `OCCn1cc(-c2cnc3nnn(Cc4ccc5ncccc5c4)c3n2)cn1` [PF04217903], the remaining activity at 3.75 µM in test [1] (Well no.=2937) came to 98.4%. The remaining activity at 1.25 µM in test [2] (Well no.=2937) was 99.1%.

`CC(C)C[C@H]1C(=O)O[C@H](Cc2ccccc2)C(=O)N(C)[C@@H](CC(C)C)C(=O)O[C@H](C)C(=O)N(C)[C@@H](CC(C)C)C(=O)O[C@H](Cc2ccccc2)C(=O)N(C)[C@@H](CC(C)C)C(=O)O[C@H](C)C(=O)N1C` [PF 1022A]: the remaining activity at 3.75 µM in test [1] (Well no.=7942) came to 114%. Further, the remaining activity at 1.25 µM in test [2] (Well no.=7942) was 101%.

As to `CS(=O)(=O)c1cccc(CNc2nc(Nc3ccc4c(c3)CCC(=O)N4)ncc2C(F)(F)F)c1` [PF 573228], the remaining activity at 3.75 µM in test [1] (Well no.=4712) was found to be 101%. Also, in test [2] (Well no.=4712), the remaining activity at 1.25 µM came to 96.1%.

For `O=C(Nc1cccnc1)N1CCC(Cc2cccc(Oc3ccc(C(F)(F)F)cn3)c2)CC1` [PF-3845], the remaining activity at 3.75 µM in test [1] (Well no.=4643) came to 90.4%. Further, the remaining activity at 1.25 µM in test [2] (Well no.=4643) was 96.6%.

`O=C(CCN1CCN(C(=O)OCc2cc(Cl)cc(Cl)c2)CC1)c1ccc2[nH]c(=O)oc2c1` [PF-8380]: the remaining activity at 3.75 µM in test [1] (Well no.=7798) came to 98.3%. The remaining activity at 1.25 µM in test [2] (Well no.=7798) came to 104%.

Turning to `Cn1cc(-c2[nH]c3cc(NC(=O)[C@H](N)C4CCCCC4)cc4c3c2C=NNC4=O)cn1` [PF-477736], the remaining activity at 3.75 µM in test [1] (Well no.=4836) stood at 101%. Further, in test [2] (Well no.=4836), the remaining activity at 1.25 µM worked out at 99.5%.

In the case of `CC(F)(F)CN1CCOc2c(nn(-c3ccccc3Cl)c2-c2ccc(Cl)cc2)C1=O` [PF-514273], the remaining activity at 3.75 µM in test [1] (Well no.=5700) was 96.2%. The remaining activity at 1.25 µM in test [2] (Well no.=5700) came to 97.7%.

In the case of `CN(c1ncccc1CNc1nc(Nc2ccc3c(c2)CC(=O)N3)ncc1C(F)(F)F)S(C)(=O)=O` [PF-562271], the remaining activity at 3.75 µM in test [1] (Well no.=2699) was determined as 100%. Further, the remaining activity at 1.25 µM in test [2] (Well no.=2699) came out at 97.1%.

Turning to `Cn1cc(-c2ccncc2)c(-c2ccc(OCc3ccc4ccccc4n3)cc2)n1` [PF-2545920], the remaining activity at 3.75 µM in test [1] (Well no.=8150) stood at 95.7%. Also, the remaining activity at 1.25 µM in test [2] (Well no.=8150) turned out to be 101%.

For `COCc1nnc(N2CC(Oc3ccc(F)cc3Cl)C2)n1-c1ccc(OC)nc1` [PF-3274167], the remaining activity at 3.75 µM in test [1] (Well no.=7285) is 97.3%. Moreover, the remaining activity at 1.25 µM in test [2] (Well no.=7285) was 99.6%.

Regarding `Cc1cn2cc(C(=O)N(C)CCO)cc(N[C@@H]3CCOc4cccc(C)c43)c2n1` [PF-03716556], the remaining activity at 3.75 µM in test [1] (Well no.=6006) is 96%. Further, the remaining activity at 1.25 µM in test [2] (Well no.=6006) amounted to 97.5%.

In the case of `CC(=O)NCC(=O)N1[C@@H]2CC[C@H]1c1ccc(Nc3ncc(C(F)(F)F)c(NC4CCC4)n3)cc12` [PF-03814735], in test [1] (Well no.=4693), the remaining activity at 3.75 µM came to 105%. Besides, the remaining activity at 1.25 µM in test [2] (Well no.=4693) worked out at 102%.

As to `N#Cc1ccc(N2N=C3c4ccc(C(=O)O)cc4CC[C@@H]3[C@@H]2C2CCCC2)cc1Cl` [PF-03882845], the remaining activity at 3.75 µM in test [1] (Well no.=6063) turned out to be 94.4%. Further, the remaining activity at 1.25 µM in test [2] (Well no.=6063) was 96.4%.

As to `O=C(NCC(=O)N1CC[C@H](N[C@H]2CC[C@@](O)(c3ccc(-c4ncccn4)cn3)CC2)C1)c1cccc(C(F)(F)F)c1` [PF-4136309], the remaining activity at 3.75 µM in test [1] (Well no.=7097) worked out at 98.1%; in test [1] (Well no.=8085), 89%. Further, the figures for the remaining activity at 1.25 µM in test [2] (Well no.=7097) and in test [2] (Well no.=8085) were 98.3% and 98%, respectively.

In the case of `COc1ccc2cc(OCC3(C(=O)O)CN(C(=O)c4ccc(F)cc4)C3)ccc2c1` [PF-04418948], in test [1] (Well no.=7197), the remaining activity at 3.75 µM turned out to be 87.9%. Also, the remaining activity at 1.25 µM in test [2] (Well no.=7197) turned out to be 89.6%.

In the case of `CN1CC[C@@H](NC(=O)Nc2ccc(C#N)cc2)C[C@@H]1c1nc2ccccc2[nH]1` [PF-04449913 maleate salt], the remaining activity at 3.75 µM in test [1] (Well no.=5703) amounted to 99.8%. Also, the remaining activity at 1.25 µM in test [2] (Well no.=5703) was 104%.

For `CC(C)CNCc1ccc(-c2ccccc2S(=O)(=O)N2CCCC2)cc1` [PF-04455242 hydrochloride], the remaining activity at 3.75 µM in test [1] (Well no.=5775) was 107%. Further, in test [2] (Well no.=5775), the remaining activity at 1.25 µM is 106%.

As to `CCc1cncnc1N1CCN(Cc2nc3ccc(C(F)(F)F)cc3[nH]2)CC1` [PF-4708671], the remaining activity at 3.75 µM in test [1] (Well no.=4804) is 94.4%. In addition, in test [2] (Well no.=4804), the remaining activity at 1.25 µM was found to be 97%.
